Laboratory results as given in the OligoGym collection.
HELM strings list units from the 5' end as sugar, base in round brackets, then linkage (d deoxyribose, r ribose, m 2'-O-methyl, p phosphodiester). Strings are as the collection lists them; they lack the last nucleoside at the 3' end of the tested compound. [moe] = 2'-O-(2-methoxyethyl) (MOE); [sp] = phosphorothioate linkage; [m5C] = 5-methylcytosine

Biological target: APP
Assay: mouse, dose not given
Settings: ASO

For “RNA1{[moe]([m5C])[sp].[moe]([m5C])p.[moe](T)p.[moe]([m5C])p.[moe](T)[sp].d(G)[sp].d([m5C])[sp].d(T)[sp].d(A)[sp].d([m5C])[sp].d(T)[sp].d(T)[sp].d([m5C])[sp].d(T)[sp].d(A)[sp].[moe]([m5C])p.[moe](T)p.[moe](A)[sp].[moe]([m5C])}$$$$ (last 3' nucleoside missing)”, which 3 h FOB score is on record?
Its 3 h FOB score is 1 score 0-7.

How did the 3 h FOB score turn out when “RNA1{[moe]([m5C])[sp].[moe]([m5C])p.[moe]([m5C])p.[moe](A)p.[moe]([m5C])[sp].d(T)[sp].d(T)[sp].d([m5C])[sp].d([m5C])[sp].d([m5C])[sp].d(A)[sp].d(T)[sp].d(T)[sp].d([m5C])[sp].d(T)[sp].[moe](G)p.[moe](G)p.[moe](A)[sp].[moe]([m5C])}$$$$ (last 3' nucleoside missing)” was run?
The 3 h FOB score was 0.5 score 0-7.
